Test results from patent publication US20060029668A1, “Sustained release L-arginine formulations and methods of manufacture and use” (priority 2002, published 2006).

Assays:
infarct volume = test: Dose optimization of combination of simvastatin and L-arginine, infarct volume in mice; type: in vivo; settings: mice injected with varying levels of simvastatin and L-arginine; predicted by statistical analysis
eNOS = eNOS function in cultured human aortic endothelial cells (conversion of labeled L-arginine to L-citrulline); type: cell-based; settings: HAEC incubated with 1.0 or 0.3 μM simvastatin for 24 hours; relative to untreated cells
Protocol: Human aortic endothelial cells (HAEC-c) (BioWhittaker, Walkersville, Md.) were cultured according to the following procedure. Endothelial cells in EBM-2/EGM-2 media (BioWhittaker) were grown to about 80% to about 90% confluence. Each flask of cells was washed with 5 ml media followed by the addition of 15 ml media to each cell. Cells were detached with a cell scraper and transferred to a 50 ml conical tube. Cells were pelleted by centrifugation at 800 RMP for 8 min. The supernatant was discarded and the pellet was washed with cold 1× PBS.
The cells were homogenized as follows. The pellet was loosened and 400 μl of 10× homogenization buffer (250 mM Tris at pH 7.4, 10 mM EDTA and 10 mM EGTA) was added. The sample was homogenized using a 27 G needle about 10 times. The homogenate was transferred to a 1.5 ml epindorph tube. The pellet was subsequently resuspended in 30 to 45 μl of 1× homogenization buffer. […]
Following incubation, about 400 μl of stop equilibration buffer (50 mM NaAcetate at pH 5.5) was added to each sample and control. […] Results are calculated, in part, by subtracting background (buffer control) from each sample. The sample values are expressed as counts per minute or as a percent of untreated cells.
Relative eNOS function was measured by the conversion of labeled-L-arginine to L-citrulline and expressed as a percent of citrulline produced by the non-treated cells. […]

[1] = system: endothelium-dependent vasodilation; test: Endothelium-dependent vasodilation by brachial artery ultrasound in subjects with elevated ADMA; type: in vivo, human; settings: subjects in whom eNOS is blocked by elevated ADMA levels

Row | Structure (SMILES) | optimal range of the combination (infarct volume) [mg/kg] | level of eNOS function (eNOS) | effect on endothelial function [1]
1 | N=C(N)NCCC[C@H](N)C(=O)O [L-arginine] | 20 to 25 |  | 
2 | CCC(C)(C)C(=O)O[C@H]1C[C@@H](C)C=C2C=C[C@H](C)[C@H](CC[C@@H]3C[C@@H](O)CC(=O)O3)[C@H]21 [simvastatin w/o L-arginine SR, simvastatin] |  | increases | does not enhance
